≈ marks a conversion by molar mass, not a printed value.
Tests used:
[1] = Compound was tested in vitro for its activity against Methicillin-Resistant Coagulase Negative Staphylococci(MRCNS 9); type: functional; settings: Staphylococcus
[2] = Compound was evaluated in vivo for percent binding to human albumin fraction V.; type: functional, organism-based
[3] = species: Mus musculus; assay: Effective dose against Staphylococcus aureus MB2985 (methicillin-susceptible) in mouse systemic infection model; type: functional
[4] = In vivo inhibitory activity against Staphylococcus aureus MB2985 (methicillin-susceptible) in mouse systemic infection model; type: functional
[5] = species: Mus musculus; assay: Plasma MIC against staphylococcus aureus infection in mice in presence of human albumin fraction V (21.5 mg/mL); type: functional, organism-based
[6] = tested on: Staphylococcus aureus; assay: Compound was tested in vitro for its activity against methicillin-Resistant Staphylococcus Aureus(MRSA 12); type: functional
[7] = tested on: Mus musculus; assay: Compound was evaluated in vivo for plasma MIC in presence of human albumin fraction V (21.5 mg/mL); type: functional, organism-based
[8] = tested on: Mus musculus; assay: Compound was evaluated in vivo for percent binding to human albumin fraction V; type: functional, organism-based

Structure (SMILES) | MIC50 [1] | MIC90 [1] | PPB [2] | ED50 [3] | MIC [4] | Plasma MIC [5] | MIC50 [6] | MIC90 [6] | Plasma MIC [7] | PPB [8]
C[C@@H](O)[C@H]1C(=O)N2C(C(=O)O)=C(c3cc(C4=NCCN4)c4oc5ccccc5c4c3)C[C@H]12 | 1 µg/mL (≈ 2.32 µM) | 1 µg/mL (≈ 2.32 µM) | 34% | 0.135 mg/kg | ≤ 0.016 µg/mL | 0.063 µg/mL | 1 µg/mL (≈ 2.32 µM) | 1 µg/mL (≈ 2.32 µM) | – | –
CNC(=N)c1cc(C2=C(C(=O)O)N3C(=O)[C@H]([C@@H](C)O)[C@H]3C2)cc2c1oc1ccccc12 | 2 µg/mL (≈ 4.77 µM) | 2 µg/mL (≈ 4.77 µM) | – | – | – | – | 1 µg/mL (≈ 2.38 µM) | 4 µg/mL (≈ 9.54 µM) | – | –
C[C@@H](O)[C@H]1C(=O)N2C(C(=O)O)=C(c3cc(C4=NCCN4C)c4oc5ccccc5c4c3)C[C@H]12 | 2 µg/mL (≈ 4.49 µM) | 4 µg/mL (≈ 8.98 µM) | – | – | – | – | 2 µg/mL (≈ 4.49 µM) | 4 µg/mL (≈ 8.98 µM) | – | –
C[C@@H](O)[C@H]1C(=O)N2C(C(=O)[O-])=C(c3cc(C4=[N+](C)CCN4C)c4oc5ccccc5c4c3)C[C@H]12 | 16 µg/mL (≈ 34.8 µM) | 32 µg/mL (≈ 69.6 µM) | – | – | – | – | 8 µg/mL (≈ 17.4 µM) | 32 µg/mL (≈ 69.6 µM) | – | –
C[C@@H](O)[C@H]1C(=O)N2C(C(=O)O)=C(c3cc(C(=N)N)c4oc5ccccc5c4c3)C[C@H]12 | 1 µg/mL (≈ 2.47 µM) | 2 µg/mL (≈ 4.93 µM) | 71% | < 0.096 mg/kg | 0.031 µg/mL (≈ 0.0765 µM) | 0.031 µg/mL | 1 µg/mL (≈ 2.47 µM) | 2 µg/mL (≈ 4.93 µM) | – | –
CN[C@H](CC(C)C)C(=O)N[C@H]1C(=O)N[C@@H](CC(N)=O)C(=O)N[C@H]2C(=O)N[C@H]3C(=O)N[C@H](C(=O)N[C@H](C(=O)O)c4cc(O)cc(O)c4-c4cc3ccc4O)[C@H](O)c3ccc(c(Cl)c3)Oc3cc2cc(c3O[C@@H]2O[C@H](CO)[C@@H](O)[C@H](O)[C@H]2O[C@H]2C[C@](C)(N)[C@H](O)[C@H](C)O2)Oc2ccc(cc2Cl)[C@H]1O [VANCOMYCIN] | 4 µg/mL (≈ 2.76 µM) | 8 µg/mL (≈ 5.52 µM) | – | – | – | – | 1 µg/mL (≈ 0.69 µM) | 2 µg/mL (≈ 1.38 µM) | – | –
C[C@@H](O)[C@H]1C(=O)N2C(C(=O)O)=C(c3ccc4oc5ccccc5c4c3)C[C@H]12 | 4 µg/mL (≈ 11 µM) | 8 µg/mL (≈ 22 µM) | – | – | – | – | 2 µg/mL (≈ 5.5 µM) | 4 µg/mL (≈ 11 µM) | – | –
C[C@@H](O)[C@H]1C(=O)N2C(C(=O)O)=C(c3cc(C(=N)N(C)C)c4oc5ccccc5c4c3)C[C@H]12 | 4 µg/mL (≈ 9.23 µM) | 8 µg/mL (≈ 18.5 µM) | – | – | – | – | 2 µg/mL (≈ 4.61 µM) | 8 µg/mL (≈ 18.5 µM) | – | –
C[C@@H](O)[C@H]1C(=O)N2C(C(=O)O)=C(SCCNC=N)C[C@H]12 [IMIPENEM ANHYDROUS] | > 128 µg/mL | > 128 µg/mL | < 5% | 0.026 mg/kg | 0.01 µg/mL (≈ 0.0334 µM) | 0.014 µg/mL | 32 µg/mL (≈ 107 µM) | 128 µg/mL (≈ 428 µM) | – | –
C[C@@H](O)[C@H]1C(=O)N2C(C(=O)[O-])=C(c3cc(-c4n(C)cc[n+]4C)c4oc5ccccc5c4c3)C[C@H]12 | 8 µg/mL (≈ 17.5 µM) | 16 µg/mL (≈ 35 µM) | – | – | – | – | 4 µg/mL (≈ 8.74 µM) | 8 µg/mL (≈ 17.5 µM) | – | –
C[C@@H](O)[C@H]1C(=O)N2C(C(=O)O)=C(c3cc(C4=NCCCN4)c4oc5ccccc5c4c3)C[C@H]12 | 2 µg/mL (≈ 4.49 µM) | 4 µg/mL (≈ 8.98 µM) | – | – | – | – | 1 µg/mL (≈ 2.24 µM) | 2 µg/mL (≈ 4.49 µM) | – | –
C[C@@H](O)[C@H]1C(=O)N2C(C(=O)O)=C(c3cc(C(N)=O)c4oc5ccccc5c4c3)C[C@H]12 | 2 µg/mL (≈ 4.92 µM) | 2 µg/mL (≈ 4.92 µM) | 95% | 0.55 mg/kg | 0.031 µg/mL (≈ 0.0763 µM) | – | 0.5 µg/mL (≈ 1.23 µM) | 1 µg/mL (≈ 2.46 µM) | 1 µg/mL | –
C[C@@H](O)[C@H]1C(=O)N2C(C(=O)O)=C(c3cc(C#N)c4oc5ccccc5c4c3)C[C@H]12 | 1 µg/mL (≈ 2.57 µM) | 1 µg/mL (≈ 2.57 µM) | – | 1.44 mg/kg | < 0.016 µg/mL | – | 0.5 µg/mL (≈ 1.29 µM) | 1 µg/mL (≈ 2.57 µM) | > 32 µg/mL | 98%

Reference: ChEMBL document CHEMBL1131850, “The synthesis and anti-MRSA activity of amidinium-substituted 2-dibenzofuranylcarbapenems” (1999)
